Measurements as given in patent US11331290B2, “Niclosamide for the treatment of cancer metastasis” (Max-Delbrück-Centrum für Molekulare Medizin in der …, priority 2011, dated 2022).

What was measured:
[1] = test system: HCT116-vector cells and HCT116-S100A4 cells; assay: Anchorage-dependent cell proliferation (MTT); format: cell-based, human; conditions: 1 μM daily
Experimental: For cell proliferation determination of HCT116, SW620, LS174T, SW480 and DLD-1 cells 2×10^3 cells were seeded in 96-well-plates (for each day one plate) and were given 24 hours to attach to the bottom of the well. Cells were from then on treated daily with 1 μM niclosamide or the respective amount of DMSO. For determination of viable cells 3-(4,5-dimethyl-2-thiazol)-2,5-diphenyl-2H-tetrazolium bromide (MTT; Sigma) was added to a final concentration of 0.5 mg per mL and incubated for 3 hours at 37° C. and 5% CO2 in a humidified incubator. […] Crystallized MTT was resolved by 10% SDS in 10 mM HCl and the absorption was measured at 560 nm. […] The average MTT metabolisation was determined of two independent experiments each performed in triplicate.
(A) Cell migration of HCT116-vector and HCT116-S100A4 cells exposed to niclosamide treatment. Cells were treated with 1 μM niclosamide for 24 hours and migration rates were measured with Boyden chamber assay. […] Cells were treated with 1 μM niclosamide for 24 hours and cell invasion was determined by Boyden chamber assay. (C) Directed migration of HCT116-vector and HCT116-S100A4 cells exposed to niclosamide treatment analyzed by wound healing assay. […] Cells were treated daily with 1 μM niclosamide and cell viability was determined with MTT assay. […] (F) Quantification of colonies formed. […]

S100A4 mRNA = S100A4 mRNA in spleen tumor of xenograft mice (qRT-PCR); format: in vivo; conditions: for S100A4 mRNA level in spleen tumor, mean % of control mice / S100A4 mRNA level in spleen tumor, mean difference control vs niclosamide: day 24
Experimental: All experiments were performed in accordance with the UKCCCR guidelines and approved by the responsible local authorities (State Office of Health and Social Affairs, Berlin, Germany). HCT116-CMVp-LUC cells (3×10^6 cells per mouse, resuspended in 50 μL PBS) were intrasplenically transplanted into 6-week-old female nonobese diabetic-severe combined immunodeficiency (NOD-SCID) mice. Mice were randomly assigned to 3 groups and reatment of mice started 24 hours after cell transplantation. Mice of the control group (n=9) were treated with daily doses of solvent. Mice of the second group (n=9) were daily treated intraperitoneally with 20 mg per kg niclosamide. Mice of the third group (n=9) were treated intraperitoneally with two doses of 15 mg per kg niclosamide per day. The experimental endpoint was reached when mice appeared moribund and/or the spleen tumor was palpable. This was the case with the majority of control mice on day 24. For long-term in vivo experiments mice randomly assigned to 3 groups. Mice of the control group (n=6) were treated intraperitoneally with daily doses of solvent. Mice of the second group (n=6) were daily treated intraperitoneally with 20 mg per kg niclosamide. Mice of the third group (n=6) were daily treated intraperitoneally for 24 days with 20 mg per kg niclosamide and for the residual days with solvent. Mice were killed by cervical dislocation when tumor reached the maximum in accordance with the local authorities.
Spleen (as the transplantation site) and liver (as a metastasis target organ) were removed. The amount of S100A4 mRNA in the tumor was determined by Trizol RNA isolation of tumor cryosections and quantitative real-time RT-PCR. The level of metastasis was evaluated by scoring. For each liver, a score was calculated as the sum of the volumes of the individual metastases. For each metastasis the formula [width2]×length was applied.
(A) In vivo luminescence imaging of metastasis under niclosamide treatment. HCT116-CMVp-LUC cells stably expressing firefly luciferase (LUC) were intrasplenically transplanted into mice (per group n=4) followed by daily intraperitoneal treatment with 20 mg per kg niclosamide. For luminescence imaging, mice were anesthetized at the indicated days and received intraperitoneally D-luciferin. Exposure time for lateral and ventral imaging was 20 seconds per picture. In situ imaging and imaging of isolated organs was performed for 1 second per picture exposure time. Signal intensity of grayscale images (256 scale) were color coded (from low to high signal intensity: blue, green, yellow, red, white) and overlayed with bright field picture. (B) S100A4 mRNA level in spleen tumor of niclosamide-treated xenograft mice. Spleens from mice (per group n=9) were dissected on day 24. Tumor tissue was cryosected for RNA isolation. S100A4 mRNA level was measured by qRT-PCR and expressed as percentage of control mice. Differences were analyzed by two-sided one-way analysis of variance and Bonferroni post hoc multiple comparison test. Bars represent mean±SD. (C) Liver metastases size in niclosamide-treated xenograft mice. Liver was dissected from xenograft mice (per group n=9) intraperitoneally treated twice per day with 15 mg per kg or daily with 20 mg per kg niclosamide for 24 days. Metastasis was quantified by scoring. Data is given as mean±SD.
(A) S100A4 expression in vitro after discontinued niclosamide treatment. HCT116 cells were treated daily with 1 μM niclosamide for three consecutive days, medium was removed on day 4, and S100A4 expression was analyzed 24, 48, and 72 hours after niclosamide removal. S100A4 expression was analyzed by qRT-PCR and immunoblot. (B) Cell migration after discontinued niclosamide treatment. Cell migration rates of HCT116 cells treated as in (A) were determined by Boyden chamber assay. Differences in control vs. treated cells were analyzed by Student's t test. (C) Anchorage-dependent cell proliferation after discontinued niclosamide treatment. […]

[2] = 20 mg per kg daily intraperitoneally
[3] = 2×15 mg per kg per day intraperitoneally

Compound: O=C(Nc1ccc([N+](=O)[O-])cc1Cl)c1cc(Cl)ccc1O [niclosamide, 2′,5-dichloro-4′-nitrosalicylanilide]
- anchorage-dependent cell proliferation [1]: reduction of cell proliferation in both cell lines
- S100A4 mRNA level in spleen tumor, mean % of control mice (S100A4 mRNA; [2]): 67.2%
- S100A4 mRNA level in spleen tumor, mean difference control vs niclosamide (S100A4 mRNA; [2]): 32.9%
- S100A4 mRNA level in spleen tumor, mean % of control mice (S100A4 mRNA; [3]): 58.4%
- S100A4 mRNA level in spleen tumor, mean difference control vs niclosamide (S100A4 mRNA; [3]): 41.7%
- S100A4 mRNA level in spleen tumor, mean difference control vs treatment (S100A4 mRNA; continuous treatment): 27%
- S100A4 mRNA level in spleen tumor, mean % of control animals (S100A4 mRNA; continuous treatment (20 mg per kg i.p. daily)): 73%
- S100A4 mRNA level in spleen tumor, mean difference control vs treatment (S100A4 mRNA; discontinuous treatment): 40.0%
- S100A4 mRNA level in spleen tumor, mean % of control animals (S100A4 mRNA; discontinuous treatment (20 mg per kg i.p. for 24 days, then solvent)): 60%
